# According to patent US4398937A, “Selective algaecides for control of cyanochloronta” (The University of Southern Mississippi, priority 1981, dated 1983):
# Assays:
# [1] = system: Lyngbya; assay: Selective effect on algae in test tubes (Table V), Lyngbya; format: cell-based; conditions: for cells/ml: 13 days after innoculation, average of 3 samples
# Experimental: (§1) Another laboratory experiment was run to further substantiate the selective effect of one of the algaecides, potassium ricinoleate. Two species of blue-green algae, Lyngbya and Cylindrospermum, and three species of green algae, Chlorella, Haematococcus and Stigeoclonium and Tribonema, a yellow-green alga of the division Chrysophycophyta, were treated as follows: Twenty ml test tubes of sterile BBM culture solution were innoculated with each alga. All species of algae were evaluated with three groups, control, 2.5 ppm algaecide and 7.5 ppm algaecide. Each group was run with triplicate samples.
# (§2) Controls were counted 6 days after innoculation, algaecide was added to the treatment groups seven days after innoculation and all test tubes were counted thirteen days after innoculation. The results are shown in Table V. After seven days, there was a 31% reduction in the Lyngbya cultures at 2.5 ppm algaecide and a 40% reduction at 7.5 ppm. After seven days, there was a 60% reduction in Cylindrospermum cultures at 2.5 ppm algaecide and a 72% reduction at 7.5 ppm. […] After thirteen days, there was a 55% reduction in numbers at both 2.5 ppm and 7.5 ppm. After twenty days there was a 27% reduction at both concentrations. […] They are, like blue-green algae, often associated with taste and odor problems.
# [2] = system: Chlorella; assay: Selective effect on algae in test tubes (Table V), Chlorella; format: cell-based; conditions: for cells/ml: 13 days after innoculation, average of 3 samples
# Experimental: as §1, §2
# [3] = system: Stigeoclonium; assay: Selective effect on algae in test tubes (Table V), Stigeoclonium; format: cell-based; conditions: for cells/ml: 13 days after innoculation, average of 3 samples
# Experimental: as §1, §2
# [4] = system: Tribonema; assay: Selective effect on algae in test tubes (Table V), Tribonema; format: cell-based; conditions: for cells/ml: average of 3 samples
# Experimental: as §1, §2
# [5] = system: green algae; assay: Field Experiment I, catfish pond, green algae and other phytoplankton; format: in vivo; conditions: 10 ppm
# Experimental: (§3) 1, 1980, to Mar. 19, 1981.
# (§4) On July 30, 1980, most ponds had numbers of blue-green algae exceeding 2×10^6 cells/liter. These algae were predominantly Oscillatoria,Microcystis and Anacystis with smaller numbers of Nostoc, Anabaena and Lyngbya. The experimental pond had 1.2×10^6 cells/liter composed mainly of Microcystis sp. Large numbers of copepods and rotifers were present. On July 30, the pond was treated with 10 ppm potassium ricinoleate by distributing a 30% aqueous solution evenly through the water column by pump from a small boat. […] This is further substantiated by the dry weights and chlorophyll a levels.
# [6] = Field Experiment I, total organism dry weight; format: in vivo; conditions: 10 ppm
# Experimental: as §3, §4
# [7] = system: blue-green algae; assay: Field Experiment II, catfish pond, blue-green algae; format: in vivo, blue-green algae (Oscillatoria and Microcystis); conditions: 2 ppm
# [8] = system: green algae; assay: Field Experiment II, catfish pond, green algae; format: in vivo; conditions: 2 ppm
# [9] = system: blue-green algae; assay: Field Experiment III, pond, blue-green algae; format: in vivo, blue-green algae (Oscillatoria and Microcystis); conditions: 2 ppm on 6/9/81
# Experimental: (§5) In Field Experiment III, a small two acre pond was monitored for a complete year for plankton organisms as before. Oscillatoria and Microcystis were usually the prevalent blue-green algae. On 6/9/81 the pond was experiencing a bloom consisting completely of Oscillatoria. Channel catfish from the ponds had the characteristic earthy, musty taste and odor of 4 and 4 respectively on the 0 to 5 scale. The pond was treated on this date with 2 ppm potassium ricinoleate, one of the selective algaecides, as before.
# [10] = system: green algae; assay: Field Experiment III, pond, green algae; format: in vivo; conditions: 2 ppm on 6/9/81
# Experimental: as §5
# [11] = system: Channel catfish; assay: Field Experiment III, taste and odor of channel catfish; format: in vivo; conditions: 2 ppm on 6/9/81; June 22
# Experimental: as §5
# [12] = system: Rhizochrysis; assay: Sewage treatment test 1, Rhizochrysis; conditions: six days after treatment
# Experimental: Two experiments were performed on sewage to further illustrate the utility of these algaecides. In the first experiment, sewage containing mostly green algae was treated with relatively high concentrations of potassium ricinoleate.
# [13] = system: blue-green algae (Microcystis and Oscillatoria); assay: Sewage treatment test 2, dense bloom of blue-green algae; conditions: ten days after treatment
# Source text: Ten days after treatment aeration was stopped and cell debris was allowed to settle.
# [14] = system: catfish fingerlings; assay: Toxicity to catfish fingerlings in aquaria; format: in vivo
# Experimental: For any algaecide to be useful in aquaculture, it must be without harmful effects on fish populations in ponds to be treated. Experiments to determine the effects of potassium ricinoleate on fish were performed in two 250 gallon aquaria using various concentrations of the algaecide. Batches of 25 live 5 in. catfish fingerlings were treated with 5, 10, 15, 20, 30, 35 and 100 ppm algaecide and observed for 48 hours.
# [15] = system: bluegill fingerlings; assay: Toxicity to bluegill fingerlings; format: in vivo; conditions: 5, 10, 15, 20, 30 and 35 ppm
# Experimental: An additional experiment was conducted on live bluegill fingerlings at 5, 10, 15, 20, 30 and 35 ppm of the algaecide.
# [16] = system: juvenile channel catfish
# [17] = in vivo
# [18] = 168 h, read-out: reduction in cultures
# [19] = 2.5 and 7.5 ppm, after seven days
# [20] = 7/31 post-treatment (treated July 30, 1980)
# [21] = 11/21 post-treatment (normal winter reduction)
# [22] = 5/26/81 B post-treat, 4 p.m., Deep, prevalent Mic
# [23] = 5/26/81 C post-treat, 4 p.m., Shallow, prevalent Ped
# [24] = 5/27/81 D, 9:40 p.m., Deep, prevalent Ped
# [25] = 5/27/81 E, 9:40 p.m., Shallow, prevalent Ped
# [26] = 5/28/81 F, 7 a.m., prevalent Ped
# [27] = 5/28/81 G, 11 a.m., prevalent Ped
smiles,measurement,setting,value
CCCCCC[C@@H](O)C/C=C\CCCCCCCC(=O)[O-].[K+],cells/ml,[1]; 2.5 ppm,2340 cells/ml
same,cells/ml,[1]; 7.5 ppm,2010 cells/ml
same,inhibition of growth at 2.5 ppm,[1]; [18],31%
same,inhibition of growth at 7.5 ppm,[1]; [18],40%
same,effect,[2]; [19],slightly inhibited
same,cells/ml,[2]; 2.5 ppm,44000 cells/ml
same,cells/ml,[2]; 7.5 ppm,49000 cells/ml
same,effect,[3]; [19],remained unchanged
same,cells/ml,[3]; 2.5 ppm,1900 cells/ml
same,cells/ml,[3]; 7.5 ppm,1900 cells/ml
same,cells/ml,"[4]; 2.5 ppm, 13 days after innoculation",5885 cells/ml
same,cells/ml,"[4]; 2.5 ppm, 20 days after innoculation",10510 cells/ml
same,cells/ml,"[4]; 7.5 ppm, 13 days after innoculation",5335 cells/ml
same,cells/ml,"[4]; 7.5 ppm, 20 days after innoculation",10295 cells/ml
same,reduction in numbers,"[4]; both 2.5 ppm and 7.5 ppm, after thirteen days",55%
same,reduction in numbers,"[4]; both concentrations (2.5 and 7.5 ppm), after twenty days",27%
same,Cells/Liter of green algae,[5]; [20],6.2 × 10^4 Cells/Liter
same,Cells/Liter of green algae,[5]; 8/1 post-treatment,5.0 × 10^4 Cells/Liter
same,Cells/Liter of green algae,[5]; 8/6 post-treatment,2.1 × 10^4 Cells/Liter
same,Cells/Liter of green algae,[5]; 8/19 post-treatment,0 Cells/Liter
same,Cells/Liter of green algae,[5]; 9/6 post-treatment,1.7 × 10^4 Cells/Liter
same,Cells/Liter of green algae,[5]; 9/23 post-treatment,4.5 × 10^5 Cells/Liter
same,Cells/Liter of green algae,[5]; [21],2.5 × 10^3 Cells/Liter
same,Cells/Liter of green algae,[5]; 12/14 post-treatment,0 Cells/Liter
same,numbers of other phytoplankton,[5]; seven days after treatment,essentially unchanged or increased in numbers
same,Dry Wgts,[6]; [20],2.19 Gm/Liter
same,Dry Wgts,[6]; 8/1 post-treatment,4.45 Gm/Liter
same,Dry Wgts,[6]; 8/6 post-treatment,17.90 Gm/Liter
same,Dry Wgts,[6]; 8/19 post-treatment,5.34 Gm/Liter
same,Dry Wgts,[6]; 9/6 post-treatment,20.69 Gm/Liter
same,Dry Wgts,[6]; 9/23 post-treatment,9.06 Gm/Liter
same,Dry Wgts,[6]; [21],1.03 Gm/Liter
same,Dry Wgts,[6]; 12/14 post-treatment,4.84 Gm/Liter
same,Cells/liter bluegreen algae,[7]; [22],4.2 × 10^5 Cells/liter
same,Cells/liter bluegreen algae,[7]; [23],0 Cells/liter
same,Cells/liter bluegreen algae,[7]; [24],1.18 × 10^4 Cells/liter
same,Cells/liter bluegreen algae,[7]; [25],0 Cells/liter
same,Cells/liter bluegreen algae,[7]; [26],5.9 × 10^3 Cells/liter
same,Cells/liter bluegreen algae,[7]; [27],0 Cells/liter
same,blue-green algae after treatment,[7]; after two days,essentially no blue-green algae present
same,Cells/liter green algae,[8]; [22],3.2 × 10^5 Cells/liter
same,Cells/liter green algae,[8]; [23],2.0 × 10^5 Cells/liter
same,Cells/liter green algae,[8]; [24],2.6 × 10^5 Cells/liter
same,Cells/liter green algae,[8]; [25],1.09 × 10^5 Cells/liter
same,Cells/liter green algae,[8]; [26],1.3 × 10^5 Cells/liter
same,Cells/liter green algae,[8]; [27],1.1 × 10^5 Cells/liter
same,green algae after treatment,"[8]; through June, 1981",remained unchanged
same,Cells/liter bluegreen algae,"[9]; 6/10/81, prevalent Osc, Mic",2.8 × 10^6 Cells/liter
same,Cells/liter bluegreen algae,"[9]; 6/12/81, prevalent Osc",1.3 × 10^6 Cells/liter
same,Cells/liter bluegreen algae,"[9]; 6/22/81, prevalent Ped",1.2 × 10^4 Cells/liter
same,predominant alga after treatment,[9]; June 22,Pediastrum with isolated fragments of Oscillatoria filaments
same,Cells/liter green algae,[10]; 6/10/81,3.0 × 10^3 Cells/liter
same,Cells/liter green algae,[10]; 6/12/81,1.4 × 10^3 Cells/liter
same,Cells/liter green algae,[10]; 6/22/81,3.5 × 10^5 Cells/liter
same,"earthy, musty taste and odor of sample fish",[11],"lost all of the earthy, musty taste and odor"
same,presence of Rhizochrysis,[12],completely absent
same,cells/liter,[13]; 2.5 ppm,8.3 × 10^5 cells/liter
same,cells/liter,[13]; 5.0 ppm,7.9 × 10^5 cells/liter
same,cells/liter,[13]; 10.0 ppm,6.6 × 10^5 cells/liter
same,cells/liter,[13]; 15.0 ppm,4.4 × 10^5 cells/liter
same,state of enumerated suspended cells,[13],appeared dead
same,fish survival,"[14]; 35 ppm and lower, observed for 48 hours",All fish survived
same,fish mortality,"[14]; 100 ppm, at 12 hours",All fish had died
same,fish survival,[15],All bluegills survived
same,taste or odor of cooked fish,"[16]; 10 ppm, samples February through June, 1981",no taste or odor problems
same,health of juvenile catfish,[16]; in vivo,fed and otherwise appeared healthy
same,oxygen depletion problems,[17],no oxygen depletion problems noted
